Laboratory results published in patent publication US11976083B2, “Inhibitors of peptidylarginine deiminases” (Gilead Sciences, Inc., priority 2020, dated 2024).

Target: T1, human PAD4 (Homo sapiens, UniProt Q9UM07)
T1 construct: human PAD4 (NM_012387), A2-P663, was PCR amplified; His-SUMO (N, cleaved yes); made in house; host or cells: E. coli BL21(DE3)
Assay: In vitro PAD4 BAEE biochemical assay
Conditions: BAEE substrate 3 mM, 5 nM PAD4, 2 mM calcium chloride; geometric mean of multiple experiments
Procedure, shortened: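 Recombinant PAD4 (5 nM final) with 2 mM CaCl2 was preincubated with compound for 30 min at 25 °C in MOPS pH 7.6 buffer with DTT, then reacted with 3 mM BAEE for 2 h at 25 °C. Released ammonia was detected fluorimetrically with o-phthalaldehyde/DTT; IC50 from four-parameter fit, geometric mean of experiments.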

T1 sequence (Q9UM07 2-663): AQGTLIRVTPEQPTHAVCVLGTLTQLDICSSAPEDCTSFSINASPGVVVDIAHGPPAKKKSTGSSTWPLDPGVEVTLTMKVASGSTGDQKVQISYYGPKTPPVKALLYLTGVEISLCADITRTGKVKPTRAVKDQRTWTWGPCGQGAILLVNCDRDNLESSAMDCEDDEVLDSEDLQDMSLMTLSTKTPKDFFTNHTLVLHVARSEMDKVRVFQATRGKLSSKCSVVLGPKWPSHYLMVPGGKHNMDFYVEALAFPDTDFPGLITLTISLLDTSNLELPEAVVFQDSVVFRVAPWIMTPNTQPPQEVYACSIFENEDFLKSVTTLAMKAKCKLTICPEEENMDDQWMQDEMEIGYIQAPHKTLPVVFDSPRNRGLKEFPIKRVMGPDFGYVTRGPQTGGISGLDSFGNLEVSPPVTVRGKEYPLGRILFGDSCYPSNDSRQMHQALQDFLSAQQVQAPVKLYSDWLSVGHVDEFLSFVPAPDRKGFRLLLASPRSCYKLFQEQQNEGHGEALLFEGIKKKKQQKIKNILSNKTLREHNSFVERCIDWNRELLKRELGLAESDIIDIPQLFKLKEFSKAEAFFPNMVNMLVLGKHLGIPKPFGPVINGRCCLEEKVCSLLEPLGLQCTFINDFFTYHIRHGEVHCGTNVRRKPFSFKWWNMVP

Row | SMILES | IC50
1 | COc1cc(C(=O)N2[C@H]3CC[C@@H]2[C@H](N)C3)cc2nc(-c3cc4ccc5nc4n3C[C@H]3C[C@H]3CCCCC(=O)N[C@@H]5C)n(C)c12 [Example 144, (3~{S),5~{R},12~{R})-18-[5-[(1~{R},2~{R},4~{S})-2-amino-7-azabicyclo[2.2.1]heptane-7-carbonyl]-7-methoxy-1-methyl-benzimidazol-2-yl]-12-methyl-1,11,20-triazatetracyclo[11.5.2.0^{3,5}.0^{16,19}] icosa-13(20),14,16(19),17-tetraen-10-one] | 31 nM
2 | COc1cc(C(=O)N2[C@H]3CC[C@@H]2[C@H](N)C3)cc2nc(-c3cc4ccc5nc4n3C[C@H]3C[C@H]3CCCC(C)(C)C(=O)N[C@@H]5C)n(C)c12 [Example 145, (3~{S},5~{R},12~{R})-18-[5-[(1~{R},2~{R},4~{S})-2-amino-7-azabicyclo[2.2.1]heptane-7-carbonyl]-7-methoxy-1-methyl-benzimidazol-2-yl]-9,9,12-trimethyl-1,11,20-triazatetracyclo[11.5.2.0^{3,5}.0^{16,19}] icosa-13(20),14,16(19),17-tetraen-10-one] | 58 nM
3 | COc1cc(C(=O)N2CCC[C@@H](N)C2)cc2nc(-c3cc4ccc5nc4n3CCCCCCCN(C)C(=O)N[C@@H]5C)c(C)n12 [Example 146, (12~{R})-18-[7-[(3~{R})-3-aminopiperidine-1-carbonyl]-5-methoxy-3-methyl-imidazo[1,2-a]pyridin-2-yl]-9,12-dimethyl-1,9,11,20-tetrazatricyclo[11.5.2.0^{16,19}]icosa-13(20),14,16(19),17-tetraen-10-one] | 47 nM
4 | COc1cc(C(=O)N2CCC[C@@H](N)C2)cc2nc(-c3cc4ccc5nc4n3CCCCCCOc3ccccc3C(=O)N[C@@H]5C)c(C)n12 [Example 147, (2~{R})-19-[7-[(3~{R})-3-aminopiperidine-1-carbonyl]-5-methoxy-3-methyl-imidazo[1,2-a]pyridin-2-yl]-2-methyl-11-oxa-3,18,24-triazatetracyclo [16.5.2.0^{5,10}.0^{21,25}] pentacosa-1(24),5(10),6,8,19,21(25),22-heptaen-4-one] | 365 nM
5 | COc1cc(C(=O)N2CCC[C@@H](N)C2)cc2nc(-c3cc4ccc5cc4n3CCCCCCC(C)(C)C(=O)N[C@@H]5C)n(C)c12 [Example 148, (11~{R})-17-[5-[(3~{R})-3-aminopiperidine-1-carbonyl]-7-methoxy-1-methyl-benzimidazol-2-yl]-8,8,11-trimethyl-1,10-diazatricyclo [10.5.2.0^{15,18}]nonadeca-12(19),13,15(18),16-tetraen-9-one] | 45 nM
6 | COc1cc(C(=O)N2CCC[C@@H](N)C2)cc2nc(-c3cc4ccc5nc4n3C[C@H]3C[C@@H]3COCCC(=O)N[C@@H]5C)n(C)c12 [Example 149, (3~{S},5~{S},12~{R})-18-[5-[(3~{R})-3-aminopiperidine-1-carbonyl]-7-methoxy-1-methyl-benzimidazol-2-yl]-12-methyl-7-oxa-1,11,20-triazatetracyclo[11.5.2.0^{3,5}.0^{16,19}] icosa-13(20),14,16(19),17-tetraen-10-one] | 46 nM
7 | COc1cc(C(=O)N2CCC[C@@H](N)C2)cc2nc(-c3cc4ccc5nc4n3C[C@@H]3C[C@H]3COCCC(=O)N[C@@H]5C)n(C)c12 [Example 150, (3~{R},5~{R},12~{R})-18-[5-[(3~{R})-3-aminopiperidine-1-carbonyl]-7-methoxy-1-methyl-benzimidazol-2-yl]-12-methyl-7-oxa-1,11,20-triazatetracyclo[11.5.2.0^{3,5}.0^{16,19}] icosa-13(20),14,16(19),17-tetraen-10-one] | 107 nM
8 | COc1cc(C(=O)N2CCC[C@@H](N)C2)cc2nc(-c3cc4ccc5nc4n3CCCC[C@H]3C[C@@H]3C(=O)N[C@@H]5C)n(C)c12 [Example 151, (2~{R},5~{S},7~{S})-13-[5-[(3~{R})-3-aminopiperidine-1-carbonyl]-7-methoxy-1-methyl-benzimidazol-2-yl]-2-methyl-3,12,18-triazatetracyclo[10.5.2.0^{5,7}.0^{15,19}] nonadeca-1(18),13,15(19),16-tetraen-4-one] | 123 nM
9 | COc1cc(C(=O)N2[C@H]3CC[C@@H]2[C@H](N)C3)cc2nc(-c3cc4ccc5nc4n3CCCC[C@H]3C[C@@H]3C(=O)N[C@@H]5C)n(C)c12 [Example 152, (2~{R},5~{S},7~{S})-13-[5-[(1~{R},2~{R},4~{S})-2-amino-7-azabicyclo[2.2.1]heptane-7-carbonyl]-7-methoxy-1-methyl-benzimidazol-2-yl]-2-methyl-3,12,18-triazatetracyclo[10.5.2.0^{5,7}.0^{15,19}] nonadeca-1(18),13,15(19),16-tetraen-4-one] | 43 nM
10 | COc1cc(C(=O)N2CCC[C@@H](N)C2)cc2nc(-c3cc4ccc5nc4n3CCCCC[C@@H](OC)C(C)(C)C(=O)N[C@@H]5C)n(C)c12 [Example 153, (7~{R},11~{R})-17-[5-[(3~{R})-3-aminopiperidine-1-carbonyl]-7-methoxy-1-methyl-benzimidazol-2-yl]-7-methoxy-8,8,11-trimethyl-1,10,19-triazatricyclo[10.5.2.0^{15,18}]nonadeca-12(19),13,15(18),16-tetraen-9-one] | 116 nM
11 | COc1cc(C(=O)N2CCC[C@@H](N)C2)cc2nc(-c3cc4ccc5nc4n3CCCCC[C@H](OC)C(C)(C)C(=O)N[C@@H]5C)n(C)c12 [Example 154, (7~{S},11~{R})-17-[5-[(3~{R})-3-aminopiperidine-1-carbonyl]-7-methoxy-1-methyl-benzimidazol-2-yl]-7-methoxy-8,8,11-trimethyl-1,10,19-triazatricyclo[10.5.2.0^{15,18}]nonadeca-12(19),13,15(18),16-tetraen-9-one] | 57 nM
12 | COc1cc(C(=O)N2CCC[C@@H](N)C2)cc2nc(-c3cc4ccc5cc4n3CCCCCCC3(CC3)C(=O)N[C@@H]5C)n(C)c12 [Example 155, (11~{R})-17-[5-[(3~{R})-3-aminopiperidine-1-carbonyl]-7-methoxy-1-methyl-benzimidazol-2-yl]-11-methyl-spiro[1,10-diazatricyclo[10.5.2.0^{15,18}]nonadeca-12(19),13,15(18),16-tetraene-8,1′-cyclopropane]-9-one] | 77 nM
13 | COc1cc(C(=O)N2CCC[C@@H](N)C2)cc2nc(-c3cc4ccc5cc4n3CCCCCOC(C)(C)C(=O)N[C@@H]5C)n(C)c12 [Example 156, (11~{R})-17-[5-[(3~{R})-3-aminopiperidine-1-carbonyl]-7-methoxy-1-methyl-benzimidazol-2-yl]-8,8,11-trimethyl-7-oxa-1,10-diazatricyclo[10.5.2.0^{15,18}]nonadeca-12(19),13,15(18),16-tetraen-9-one] | 56 nM
14 | COc1cc(C(=O)N2CCC[C@@H](N)C2)cc2nc(-c3cc4ccc5nc4n3CCCCC[C@@H]3C[C@H]3C(=O)N[C@@H]5C)n(C)c12 [Example 157, (2~{R},5~{R},7~{R})-14-[5-[(3~{R})-3-aminopiperidine-1-carbonyl]-7-methoxy-1-methyl-benzimidazol-2-yl]-2-methyl-3,13,19-triazatetracyclo[11.5.2.0^{5,7}.0^{16,20}] icosa-1(19),14,16(20),17-tetraen-4-one] | 36 nM
15 | COc1cc(C(=O)N2CCC[C@@H](N)C2)cc2nc(-c3cc4ccc5nc4n3CCCCC[C@H]3C[C@@H]3C(=O)N[C@@H]5C)n(C)c12 [Example 158, (2~{R},5~{S},7~{S})-14-[5-[(3~{R})-3-aminopiperidine-1-carbonyl]-7-methoxy-1-methyl-benzimidazol-2-yl]-2-methyl-3,13,19-triazatetracyclo[11.5.2.0^{5,7}.0^{16,20}] icosa-1(19),14,16(20),17-tetraen-4-one] | 241 nM
16 | COc1cc(C(=O)N2CCC[C@@H](N)C2)cc2nc(-c3cc4ccc5cc4n3CCCCCCC3(CC3)C(=O)N[C@@H]5C)n(C3CC3)c12 [Example 159, (11~{R})-17-[5-[(3~{R})-3-aminopiperidine-1-carbonyl]-1-cyclopropyl-7-methoxy-benzimidazol-2-yl]-11-methyl-spiro[1,10-diazatricyclo[10.5.2.0^{15,18}]nonadeca-12(19),13,15(18),16-tetraene-8,1′-cyclopropane]-9-one] | 62 nM
17 | COc1cc(C(=O)N2CCC[C@@H](N)C2)cc2nc(-c3cc4ccc5cc4n3CCCCCCC(C)(C)C(=O)N[C@@H]5C)n(C3CC3)c12 [Example 160, (11~{R})-17-[5-[(3~{R})-3-aminopiperidine-1-carbonyl]-1-cyclopropyl-7-methoxy-benzimidazol-2-yl]-8,8,11-trimethyl-1,10-diazatricyclo[10.5.2.0^{15,18}]nonadeca-12(19),13,15(18),16-tetraen-9-one] | 53 nM
18 | COc1cc(C(=O)N2CCC[C@@H](N)C2)cc2nc(-c3cc4ccc5nc4n3C[C@H]3C[C@@H]3[C@H](C)OCCC(=O)N[C@@H]5C)n(C)c12 [Example 161, (3~{S},5~{S},6~{S},12~{R})-18-[5-[(3~{R})-3-aminopiperidine-1-carbonyl]-7-methoxy-1-methyl-benzimidazol-2-yl]-6,12-dimethyl-7-oxa-1,11,20-triazatetracyclo[11.5.2.0^{3,5}.0^{16,19}] icosa-13(20),14,16(19),17-tetraen-10-one] | 108 nM
19 | COc1cc(C(=O)N2CCC[C@@H](N)C2)cc2nc(-c3cc4ccc5nc4n3C[C@H]3C[C@@H]3[C@@H](C)OCCC(=O)N[C@@H]5C)n(C)c12 [Example 162, (3~{S),5~{S},6~{R},12~{R})-18-[5-[(3~{R})-3-aminopiperidine-1-carbonyl]-7-methoxy-1-methyl-benzimidazol-2-yl]-6,12-dimethyl-7-oxa-1,11,20-triazatetracyclo[11.5.2.0^{3,5}.0^{16,19}] icosa-13(20),14,16(19),17-tetraen-10-one] | 55 nM
